pIC50: −log10 of the molar value.
What was measured:
Assay type in all cases: biochemical
HDAC3 = target: T1, HDAC3 (Homo sapiens, UniProt O15379); test: Caliper microfluidic endpoint IC50 assay
T1 construct: purchased Cayman Chemicals
Protocol: (§1) HP-1 and HP-2 IC50 values for HDAC1 were determined using the Trypsin-coupled assay as well as the Caliper endpoint assay. HP-1 and HP-2 IC50 values for HDAC2, HDAC3, HDAC6 and HDAC8 were determined with the Caliper endpoint assay.
(§2) The Caliper microfluidic assay was performed at the Broad Institute exactly as previously described.^5
(§3) IC50 measurements. HP-1 and HP-2 IC50 values for HDAC1 were determined using the Trypsin-coupled assay as well as the Caliper endpoint assay. HP-1 and HP-2 IC50 values for HDAC2, HDAC3, HDAC6 and HDAC8 were determined with the Caliper endpoint assay (full experimental details in Example 1).

HDAC8 = target: T2, HDAC8 (Homo sapiens, UniProt Q9BY41); test: Caliper microfluidic endpoint IC50 assay
T2 construct: purchased Cayman Chemicals
T2 sequence (Q9BY41 1-377): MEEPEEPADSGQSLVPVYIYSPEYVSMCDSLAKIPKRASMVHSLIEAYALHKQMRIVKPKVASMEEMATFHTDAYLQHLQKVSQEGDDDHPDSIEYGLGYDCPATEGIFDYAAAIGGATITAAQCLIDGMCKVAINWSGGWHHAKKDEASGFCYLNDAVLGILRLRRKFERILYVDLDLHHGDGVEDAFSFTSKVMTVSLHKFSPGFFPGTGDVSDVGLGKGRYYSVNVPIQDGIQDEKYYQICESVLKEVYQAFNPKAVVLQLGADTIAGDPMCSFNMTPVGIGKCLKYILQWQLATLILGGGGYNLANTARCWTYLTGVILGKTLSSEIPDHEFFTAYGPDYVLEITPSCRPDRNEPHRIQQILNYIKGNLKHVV
Protocol: as §1, §2, §3

HDAC2 = HDAC2 (Homo sapiens, UniProt Q92769); test: Caliper microfluidic endpoint IC50 assay
Protocol: as §1, §2, §3

Sirtuin 1 = target: T3, Sirtuin 1 (Homo sapiens, UniProt Q96EB6); test: LCMS assay of sirtuin enzymatic action on HP-1; details: Sirtuin 1, −SAHA; 5 μM HP-1, 12 hours at 37° C.
T3 construct: purchased Cayman Chemicals
T3 sequence (Q96EB6 1-747): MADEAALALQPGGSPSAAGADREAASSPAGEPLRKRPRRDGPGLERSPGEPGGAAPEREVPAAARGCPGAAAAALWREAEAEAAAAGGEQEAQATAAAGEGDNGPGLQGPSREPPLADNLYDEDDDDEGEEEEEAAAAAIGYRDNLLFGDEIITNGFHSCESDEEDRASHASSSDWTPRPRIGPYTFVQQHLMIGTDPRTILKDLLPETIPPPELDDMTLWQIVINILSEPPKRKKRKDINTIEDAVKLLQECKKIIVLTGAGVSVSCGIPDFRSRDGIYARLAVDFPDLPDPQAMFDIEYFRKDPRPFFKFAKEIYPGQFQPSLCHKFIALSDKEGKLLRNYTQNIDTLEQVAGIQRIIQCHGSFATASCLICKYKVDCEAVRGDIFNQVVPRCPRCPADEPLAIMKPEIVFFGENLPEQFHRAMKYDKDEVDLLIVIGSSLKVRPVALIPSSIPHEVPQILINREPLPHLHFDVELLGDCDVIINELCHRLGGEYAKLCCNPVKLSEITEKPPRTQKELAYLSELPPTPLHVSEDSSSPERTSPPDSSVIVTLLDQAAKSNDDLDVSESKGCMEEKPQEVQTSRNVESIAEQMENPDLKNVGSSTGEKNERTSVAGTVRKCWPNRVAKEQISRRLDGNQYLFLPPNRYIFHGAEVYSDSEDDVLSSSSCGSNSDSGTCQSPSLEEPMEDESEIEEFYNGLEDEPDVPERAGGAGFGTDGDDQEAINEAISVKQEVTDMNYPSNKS
Protocol: (§4) The enzymatic cleavage of HP-1 was analyzed by performing LCMS assays with sirtuin 1 and 3 (Cayman Chemicals) and the proteases chymotrypsin (Sigma-Aldrich), cathepsin (EMD Millipore), and pepsin* (Sigma-Aldrich). Solutions containing (i) vehicle with DMSO in HDAC buffer, (ii) 5 μM HP-1 in HDAC buffer, and (iii) 5 μM HP-1 and the enzyme in HDAC buffer were incubated for 12 hours at 37° C. Following incubation, a 20 μL aliquot of supernatant from each sample was analyzed by LCMS. Deacetylation of HP-1 was investigated by screening for the DHP-1 (M+H)^+ ion following positive electrospray ionization. All assay samples were analyzed in triplicate. […]
(§5) HP-1 was not altered by sirtuins 1 and 3 or the proteases chymotrypsin, cathepsin and pepsin, as determined by LCMS. […] For Cathepsin B, the cleavage of the enzyme substrate, z-RR-pNA (Santa Cruz Biotechnology, Dallas, Tex.) was monitored using a Wallac EnVision 2103 Multilabel fluorescence plate reader (PerkinElmer, Waltham, Mass.) with a 405 nm excitation filter, a 406 nm emission filter, and a gain of 150. The cleavage of the pepsin substrate, Ac-Phe-Tyr-OH (Chem-Impex Inc.), was monitored by LCMS at pH 4. […]

Sirtuin 3 = target: T4, Sirtuin 3 (Homo sapiens, UniProt Q9NTG7); test: LCMS assay of sirtuin enzymatic action on HP-1; details: Sirtuin 3, −SAHA; 5 μM HP-1, 12 hours at 37° C.
T4 construct: purchased Cayman Chemicals
T4 sequence (Q9NTG7 1-399): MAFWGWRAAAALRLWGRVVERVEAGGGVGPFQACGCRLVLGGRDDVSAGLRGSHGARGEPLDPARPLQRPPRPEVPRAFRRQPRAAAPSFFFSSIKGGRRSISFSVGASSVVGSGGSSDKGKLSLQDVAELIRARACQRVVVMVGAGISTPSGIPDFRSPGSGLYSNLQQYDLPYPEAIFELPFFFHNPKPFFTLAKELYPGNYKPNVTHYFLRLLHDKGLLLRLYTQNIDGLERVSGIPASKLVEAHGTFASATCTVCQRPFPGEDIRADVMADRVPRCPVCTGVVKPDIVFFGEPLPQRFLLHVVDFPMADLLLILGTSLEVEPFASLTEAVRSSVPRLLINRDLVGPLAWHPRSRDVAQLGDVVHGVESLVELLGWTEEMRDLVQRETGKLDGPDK
Protocol: as §4, §5

HDAC2, sequence (Q92769 whole entry, species assumed): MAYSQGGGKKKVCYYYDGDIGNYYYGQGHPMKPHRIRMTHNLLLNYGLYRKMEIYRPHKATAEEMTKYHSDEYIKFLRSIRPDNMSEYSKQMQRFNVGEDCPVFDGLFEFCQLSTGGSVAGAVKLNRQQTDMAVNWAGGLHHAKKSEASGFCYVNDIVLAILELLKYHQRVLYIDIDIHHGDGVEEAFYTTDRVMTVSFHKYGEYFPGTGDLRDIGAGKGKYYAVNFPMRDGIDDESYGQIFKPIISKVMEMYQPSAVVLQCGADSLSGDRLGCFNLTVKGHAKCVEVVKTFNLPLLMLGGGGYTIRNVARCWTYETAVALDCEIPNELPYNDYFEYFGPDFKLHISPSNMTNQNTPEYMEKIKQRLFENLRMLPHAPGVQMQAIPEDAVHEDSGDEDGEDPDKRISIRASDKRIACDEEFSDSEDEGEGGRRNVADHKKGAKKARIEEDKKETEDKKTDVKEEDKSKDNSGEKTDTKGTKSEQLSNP
T1 sequence (O15379 whole entry): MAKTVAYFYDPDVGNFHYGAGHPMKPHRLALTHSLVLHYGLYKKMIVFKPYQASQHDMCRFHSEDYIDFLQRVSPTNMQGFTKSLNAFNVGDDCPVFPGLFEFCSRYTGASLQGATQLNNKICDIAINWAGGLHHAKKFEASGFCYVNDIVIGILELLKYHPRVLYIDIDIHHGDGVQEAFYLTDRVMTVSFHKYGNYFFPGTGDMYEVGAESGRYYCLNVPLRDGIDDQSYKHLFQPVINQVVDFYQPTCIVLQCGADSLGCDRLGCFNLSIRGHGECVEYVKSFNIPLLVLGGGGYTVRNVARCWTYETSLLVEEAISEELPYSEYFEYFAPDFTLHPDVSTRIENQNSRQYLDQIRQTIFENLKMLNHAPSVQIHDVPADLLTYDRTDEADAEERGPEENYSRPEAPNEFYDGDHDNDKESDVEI
T1 sequence (Q9Y618 395-489 partner limits assumed): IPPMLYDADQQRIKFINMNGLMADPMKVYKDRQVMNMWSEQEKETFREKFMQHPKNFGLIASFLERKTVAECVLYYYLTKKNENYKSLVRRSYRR

`CC(=O)NC=CCCCCNC(=O)CCCCCNc1ccc([N+](=O)[O-])c2nonc12` [HP-1] gave a pIC50 (HDAC3) of 4.23, a pIC50 (HDAC8) of under 4.15 and a pIC50 (HDAC2) of under 4.15. For the same compound, the “% HP-1 to DHP-1” value (Sirtuin 1) was 0% and the “% HP-1 to DHP-1” value (Sirtuin 3) was 0%.

From patent US20160138077A1, “MONITORING AND ASSESSING DEACETYLASE ENZYME ACTIVITY” (THE GENERAL HOSPITAL CORPORATION, priority 2013, published 2016)
